13 molecules from PubChem BioAssay (NCI) can be followed below.

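Method: 48-hour compound exposure of cells in 96-well plates, five concentrations, linear interpolation of endpoints. The concentration for full growth arrest is given as TGI.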

The subject of the first assay is NCI-H522 lung. As to the kind of experiment: inhibition of tumour cell growth, NCI panel, 48 h.
For `CCCC(O)C(NC(=O)CCl)C(=O)O` (stereo not given), the TGI was over 100 µM.
Still for that read-out and setting: as for `O=P(O)(Cc1ccccc1)c1ccccc1-c1ccccc1`, the figure is over 100 µM; as for `COc1cc(/C=C/C(=O)O)ccc1C(=O)OCc1ccccc1`, over 100 µM; as for `O=C(CC(=O)c1ccccc1)CC(O)(c1ccccc1)c1ccccc1`, 13.6 µM.
As to `Cc1cccc(C(C)C)c1NC(=O)CC1Sc2ccccc2NC1=O` (stereo not given), the TGI is over 100 µM.
On the same count and under the same terms, with `COc1cccc2c1C(=O)c1c(O)c3c(c(O)c1C2=O)C[C@@](O)(C(=O)CO)C[C@@H]3OC1CC(N)C(OC)C(C)O1` (stereo not given in full) the figure was 0.45 µM; with `CC(C)(C)NC(=O)N1N=C(c2ccccc2)C1c1ccccc1` (stereo not given), 35.5 µM.
Still for that read-out and setting: with `COc1cc2c(cc1O)C1C(O)C(O)C=C3CCN(C2)C31` (stereo not given) the figure was 4.29 µM; with `CC(C)=CCc1c(O)ccc2ccc(=O)oc12`, over 100 µM.
Same read-out and setting: with `COC(=O)C1C=CN(N(C)C)C2=C1C(=O)c1c(O)cccc1C2=O` (stereo not given) the figure was 5.95 µM.

The next assay concerns NCI/ADR-RES ovarian. The experiment in a line: inhibition of tumour cell growth, NCI panel, 48 h.
`CCCC(O)C(NC(=O)CCl)C(=O)O` (stereo not given) yielded a TGI of over 100 µM.
As for `COc1ccc(/C=N/n2c(-c3ccccc3)n[nH]c2=O)cc1`, the TGI is over 100 µM.
The same measure, in the same setting: with `O=P(O)(Cc1ccccc1)c1ccccc1-c1ccccc1` the figure was over 100 µM; with `CC12CC(C#N)(C#N)C(C#N)(CO1)C(=N)O2` (stereo not given), over 100 µM.
On the same count and under the same terms, as for `COc1cc(/C=C/C(=O)O)ccc1C(=O)OCc1ccccc1`, the figure is over 100 µM; as for `CC(C)(C)NC(=O)N1N=C(c2ccccc2)C1c1ccccc1` (stereo not given), over 100 µM; as for `CC(C)=CCc1c(O)ccc2ccc(=O)oc12`, over 31.6 µM.
Still for that read-out and setting: as for `COC(=O)C1C=CN(N(C)C)C2=C1C(=O)c1c(O)cccc1C2=O` (stereo not given), the figure is 6.47 µM.

Another assay concerns OVCAR-5 ovarian. The experiment in a line: inhibition of tumour cell growth, NCI panel, 48 h.
As for `CC#C[P+](c1ccccc1)(c1ccccc1)c1ccccc1`, the TGI turned out to be 22 µM.
Consider `CCCC(O)C(NC(=O)CCl)C(=O)O` (stereo not given), for which the TGI is over 100 µM.
`COc1ccc(/C=N/n2c(-c3ccccc3)n[nH]c2=O)cc1` returned a TGI of over 100 µM.
Same read-out and setting: as for `O=P(O)(Cc1ccccc1)c1ccccc1-c1ccccc1`, the figure is over 100 µM; as for `CC12CC(C#N)(C#N)C(C#N)(CO1)C(=N)O2` (stereo not given), over 100 µM; as for `COc1cc(/C=C/C(=O)O)ccc1C(=O)OCc1ccccc1`, over 100 µM.
`O=C(CC(=O)c1ccccc1)CC(O)(c1ccccc1)c1ccccc1`: the TGI was found to be 25.6 µM.
In turn, `Cc1cccc(C(C)C)c1NC(=O)CC1Sc2ccccc2NC1=O` (stereo not given) gave a TGI of over 100 µM.
Still for that read-out and setting: with `COc1cccc2c1C(=O)c1c(O)c3c(c(O)c1C2=O)C[C@@](O)(C(=O)CO)C[C@@H]3OC1CC(N)C(OC)C(C)O1` (stereo not given in full) the figure was 1.34 µM; with `CC(C)(C)NC(=O)N1N=C(c2ccccc2)C1c1ccccc1` (stereo not given), over 100 µM.
Same read-out and setting: as for `COc1cc2c(cc1O)C1C(O)C(O)C=C3CCN(C2)C31` (stereo not given), the figure is 24.6 µM; as for `CC(C)=CCc1c(O)ccc2ccc(=O)oc12`, over 31.6 µM; as for `COC(=O)C1C=CN(N(C)C)C2=C1C(=O)c1c(O)cccc1C2=O` (stereo not given), 4.62 µM.

In the next assay the test system is OVCAR-8 ovarian. As to the kind of experiment: inhibition of tumour cell growth, NCI panel, 48 h.
On to `CC#C[P+](c1ccccc1)(c1ccccc1)c1ccccc1`, for which the TGI came to 12 µM.
Molecule `CCCC(O)C(NC(=O)CCl)C(=O)O` (stereo not given) gave a TGI of over 100 µM.
With `COc1ccc(/C=N/n2c(-c3ccccc3)n[nH]c2=O)cc1`, the TGI is over 100 µM.
On the same count and under the same terms, with `O=P(O)(Cc1ccccc1)c1ccccc1-c1ccccc1` the figure was over 100 µM.
Same read-out and setting: with `CC12CC(C#N)(C#N)C(C#N)(CO1)C(=N)O2` (stereo not given) the figure was over 100 µM.
With `COc1cc(/C=C/C(=O)O)ccc1C(=O)OCc1ccccc1`, the TGI was over 100 µM.
The same measure, in the same setting: as for `O=C(CC(=O)c1ccccc1)CC(O)(c1ccccc1)c1ccccc1`, the figure is 20.5 µM; as for `Cc1cccc(C(C)C)c1NC(=O)CC1Sc2ccccc2NC1=O` (stereo not given), over 100 µM.
The same measure, in the same setting: as for `COc1cccc2c1C(=O)c1c(O)c3c(c(O)c1C2=O)C[C@@](O)(C(=O)CO)C[C@@H]3OC1CC(N)C(OC)C(C)O1` (stereo not given in full), the figure is 1.21 µM; as for `CC(C)(C)NC(=O)N1N=C(c2ccccc2)C1c1ccccc1` (stereo not given), over 100 µM.
Take `COc1cc2c(cc1O)C1C(O)C(O)C=C3CCN(C2)C31` (stereo not given): the TGI is 9.14 µM.
The same measure, in the same setting: as for `CC(C)=CCc1c(O)ccc2ccc(=O)oc12`, the figure is over 100 µM; as for `COC(=O)C1C=CN(N(C)C)C2=C1C(=O)c1c(O)cccc1C2=O` (stereo not given), 7.4 µM.

For another assay, the system named is SF-295 CNS. As to the kind of experiment: inhibition of tumour cell growth, NCI panel, 48 h.
Take `CC#C[P+](c1ccccc1)(c1ccccc1)c1ccccc1`: the TGI is 9.15 µM.
The same measure, in the same setting: as for `CCCC(O)C(NC(=O)CCl)C(=O)O` (stereo not given), the figure is over 100 µM.
`COc1ccc(/C=N/n2c(-c3ccccc3)n[nH]c2=O)cc1` gave a TGI of over 100 µM.
Molecule `O=P(O)(Cc1ccccc1)c1ccccc1-c1ccccc1` came in with a TGI of over 100 µM.
For `CC12CC(C#N)(C#N)C(C#N)(CO1)C(=N)O2` (stereo not given), the TGI is over 100 µM.
On to `COc1cc(/C=C/C(=O)O)ccc1C(=O)OCc1ccccc1`, for which the TGI was over 100 µM.
As to `O=C(CC(=O)c1ccccc1)CC(O)(c1ccccc1)c1ccccc1`, the TGI turned out to be 17.1 µM.
Still for that read-out and setting: as for `Cc1cccc(C(C)C)c1NC(=O)CC1Sc2ccccc2NC1=O` (stereo not given), the figure is over 100 µM; as for `COc1cccc2c1C(=O)c1c(O)c3c(c(O)c1C2=O)C[C@@](O)(C(=O)CO)C[C@@H]3OC1CC(N)C(OC)C(C)O1` (stereo not given in full), 1.98 µM; as for `CC(C)(C)NC(=O)N1N=C(c2ccccc2)C1c1ccccc1` (stereo not given), over 100 µM.
The same measure, in the same setting: as for `COc1cc2c(cc1O)C1C(O)C(O)C=C3CCN(C2)C31` (stereo not given), the figure is 17.6 µM.
